# Source: patent US8137919B2 (Montefiore Medical Center, priority 2008, dated 2012)
# What was measured:
# Assay type in all cases: cell-based
# SW403 cells = test: Apoptosis, PI staining and FACS; conditions: 5 microMolar, 72 hours treatment
# Method: FIG. 4. […] Cell cycle distribution and apoptosis was assessed by PI staining and FACS analysis. Values shown are mean±SEM, n=3, #P<0.05.
# [1] = test system: GEO, LIM1215, and SW403 (cetuximab sensitive cell lines); test: Proliferative response to EGF, S-phase; conditions: 24 h post EGF treatment (0.5 ng/ml), serum-free
# Method: (§1) For each cell line, one plate was harvested for determination of t=0 absorbance values. Viable cells were determined 72 h post-treatment using the MTT assay by measurement of absorbance at 570 nm. The relative rate of cell growth for each cell line was factored into the analysis by subtracting the absorbance at time zero from both the control and treatment groups. All the experiments were replicated a minimum of 3 times. For determination of sensitivity to EGF, cells were serum starved for 4 h then treated with 0, 0.5 or 5 ng/ml EGF for 24-72 h.
# (§2) To test this, the proliferative response of the 3 most cetuximab-sensitive and 3 most cetuximab-resistant cell lines to exogenous EGF-treatment was examined under serum-free conditions (FIG. 6). […] These findings indicate that a subset of colon tumors exist that are dependent upon ligand activation of EGFR for their growth, and it is these cell lines that are growth inhibited by blockade of ligand binding to the EGFR.
# [2] = test system: LIM2405, HCT15, and HCT116 (cetuximab resistant cell lines); test: Proliferative response to EGF, S-phase; conditions: 24 h post EGF treatment (0.5 ng/ml), serum-free
# Method: as §1, §2
# [3] = test system: cetuximab sensitive and resistant cell lines; test: Growth response to EGF, MTT assay; conditions: 0.5 or 5 ng/ml EGF
# Method: Cell growth was assayed by MTT assay. Values shown are mean±SEM from a representative experiment, #p<0.05. Experiments were repeated 3 separate times.
# as §1
Molecule,apoptosis (SW403 cells),change in S-phase [1],change in S-phase [2],cell growth (MTT) [3]
"O=c1[nH]cc(F)c(=O)[nH]1 [5FU, 5-fluoruracil]",approximately 50%,–,–,–
"EGF: EGFR activator, EGFR ligand",–,significant increase,not,preferentially increased growth of the cetuximab sensitive cell lines
